According to ChEMBL document CHEMBL1268821, “Inhibitors of the tyrosine kinase EphB4. Part 3: identification of non-benzodioxole-based kinase inhibitors” (Bioorg Med Chem Lett, 2010):

Experiments:
[1] = Plasma concentration in nude mouse at 100 mg/kg, po measured at 24 hrs; type: ADME, organism-based; set-up: dose 100 mg/kg, route oral
[2] = Volume of distribution at steady state in Han Wistar rat at […], iv and 5 mg/kg, po; type: ADME, organism-based; details: in vivo, read-out: Vdss
[3] = system: Rattus norvegicus; assay: Hepatic blood flow in Han Wistar rat at […], iv and 5 mg/kg, po; type: ADME, organism-based, Liver; details: in vivo
[4] = Bioavailability in Han Wistar rat at […], iv and 5 mg/kg, po; type: ADME, organism-based; details: in vivo
[5] = AUC (0 to 24 hrs) in nude mouse at 100 mg/kg, po; type: ADME, organism-based; set-up: time < 24 hr, dose 100 mg/kg, route oral; details: plasma
[6] = Plasma concentration in nude mouse at 100 mg/kg, po measured at 4 hrs; type: ADME, organism-based; set-up: dose 100 mg/kg, route oral
[7] = Plasma concentration in nude mouse at 100 mg/kg, po measured at 1 hr; type: ADME, organism-based; set-up: dose 100 mg/kg, route oral

concentration at 24 h [1]: 1800 nM
Vd [2]: 0.8 L/kg
QH [3]: 19%
bioavailability [4]: 65%
AUC(0-t) at 24 h [5]: 48.7 µM·h
concentration at 4 h [6]: 1900 nM
concentration at 1 h [7]: 11000 nM
SMILES: CN(c1ccnc(Nc2cc(N3CCOCC3)cc(N3CCOCC3)c2)n1)c1cccc2[nH]ncc12
